In patent US20200345637A1, “SUSPENSION COMPOSITIONS OF MULTI-TARGET INHIBITORS” (AIVIVA BIOPHARMA, INC., priority 2018, published 2020):
Values after ≈ are worked out from the molar mass of the structure shown. Values joined by “and” are separate entries in the source; they are usually repeats but may differ in a detail not shown here. Equal values may be shown once. Read-outs that look alike come from different tables or passages of the source.

Experiments:
[1] = systemic; literature or US label; cited from earlier work
[2] = Terminal sterilization and stability assay of formulated suspension; type: physicochemical; conditions: for Assay (% of labeled claim) of Formulated Suspension, 4 months (40° C./75% RH) / Assay (% of labeled claim) of Formulated Suspension, 6 weeks (40° C./75% RH) / Assay (% of labeled claim) of Formulated Suspension, Initial: Gamma irradiation
Excerpt: (§1) Examples 1-3 depict the results of physical testing of some subject formulations.

[3] = Aqueous solubility of multi-target inhibitors; type: physicochemical; conditions: for solubility: aqueous (not further specified)
Excerpt: Non-limiting examples of the useful multi-target inhibitors and their physicochemical forms are given in Table 1 with aqueous solubility information.

[4] = Pharmacokinetics and distribution after intraprostate injections in rats (Example 8); conditions: for Plasma concentrations Mean: intraprostate injection
Method: (§2) This study investigated the pharmacokinetics and distribution of axitinib, sorafenib, pirfenidone, and riociguat after intraprostate injections in Wistar rats (n=6-7 per treatment group). Axitinib, sorafenib and riociguat, as 1% w/w suspension, and pirfenidone as 2.5% suspension were administered as single intraprostate injection (a total of 0.2 mL) on Days 15 and 29 in this 42-day study.

[5] = Suspension physical testing: particle size, pH, osmolality, syringeability; type: physicochemical; design: API Raw Material PSD D50 / Formulated Suspension Particle size distribution D50 / API Raw Material PSD D90 / Formulated Suspension Particle size distribution D90: unit not given here; conditions: for Formulated Suspension Syringeability: needle gauge passed
Excerpt: as §1

[6] = rat, in vivo
Method: as §2

[7] = Local tolerance and ocular distribution, topical instillation three times daily for 5 days
Method: (§3) This study evaluated the local tolerance of vehicle, axitinib, pirfenidone, sorafenib and lenvatinib and ocular distribution of axitinib, sorafenib and lenvatinib (0.3% w/w) when administered by topical ocular instillation in the eyes of New Zealand white rabbits (n=6 per group). […] On Dosing Day 5, the animals were sacrificed and eyes were enucleated. Ocular and plasma concentrations of select compounds were measured by LC-MS/MS.

[8] = test system: linear incision wound sites; assay: Intradermal injection along linear incision wounds, histological evaluation; type: in vivo, minipigs; conditions: for granulation tissue formation compared to vehicle treated control wounds / presence of myofibroblasts compared to vehicle treated control wounds: 2% suspension (sorafenib 1% suspension); for SMA staining / dermis fibrin / dermis fibroplasia / dermis provisional matrix / epidermis hyperplasia / inflammation / subcutis fibroplasia / subcutis mixed cell infiltrate: microscopic grade over 29 days
Method: The purpose of this study was to evaluate the suspension formulation when administered via intradermal injection with axitinib, nintedanib, sorafenib, and lenvatinib to the dorsal skin along linear incisions of minipigs.
Four male minipigs were dosed. Animals were dosed once via intradermal injection along the edges of each of 10 wound sites for each animal (5 wounds on each side of the dorsum [perpendicular to the spine], approximately 3 cm in length and 3 cm distance from the spine). Axitinib, nintedanib, lenvatinib, and the vehicle control article were administered via eight 0.1 mL intradermal injections around each respective wound site (one injection/cm on both sides of the wound), for a total volume of 0.8 mL/wound site. Sorafenib was administered via the same method at a volume of 0.2 mL/injection, for a total volume of 1.6 mL/wound site. The vehicle control article was Vehicle for Test Articles axitinib, nintedanib, lenvatinib, and sorafenib.
A generalized measure of inflammation, including inflammatory cell infiltrate, fibrin deposition, fibroplasia, epithelial hyperplasia and areas of tissue necrosis were assessed microscopically. […] For test agent treated wounds, all were graded as slight on Day 4, and there was no consistent difference over time as compared to the control group.

[9] = rabbit, in vivo
Method: as §3

[10] = Skin pharmacokinetics after single intradermal injection in minipigs; conditions: over 28 days
Method: Pharmacokinetics of axitinib and nintedanib was investigated after a single intradermal injection of 0.1% and 1% suspensions to the dorsum of Yucatan minipigs. The dosing volume was 0.1 mL for each injection. Concentrations of drugs in the epidermis and dermis over 28 days at the injection site and at 2 cm away from the injection site were measured using LCMS/MS method.

[11] = two weeks after the second biweekly intraprostate injection

Row | Compound | terminal plasma half-life in man [1] [h] | Assay (% of labeled claim) of Formulated Suspension, 4 months (40° C./75% RH) [2] | Assay (% of labeled claim) of Formulated Suspension, 6 weeks (40° C./75% RH) [2] | Assay (% of labeled claim) of Formulated Suspension, Initial ([2]; initial) | solubility [3] [µg/mL] | Plasma concentrations Mean ([4]; Study Day 15, 24 h) [ng/mL] | Plasma concentrations Mean ([4]; Study Day 29, 24 h) [ng/mL] | Plasma concentrations Mean ([4]; Study Day 42, 0 h) | Prostate concentrations Mean [4, 11] [µg/g] | API Raw Material PSD D50 [5] | API Raw Material PSD D90 [5] | Formulated Suspension Osmolality [5] [mOsm/kg] | Formulated Suspension Particle size distribution D50 [5] | Formulated Suspension Particle size distribution D90 [5] | Formulated Suspension pH [5] | Formulated Suspension Syringeability [5] | drug concentration in prostate [6] | drug release from prostate into systemic circulation [6] | granulation tissue formation compared to vehicle treated control wounds [8] | presence of myofibroblasts compared to vehicle treated control wounds [8] | further results
1 | CNC(=O)c1cc(Oc2ccc(NC(=O)Nc3ccc(Cl)c(C(F)(F)F)c3)c(F)c2)ccn1 [regorafenib, Regorafenib] | 28 | – | – | – | – | – | – | – | – | – | – | – | – | – | – | – | – | – | – | – | –
2 | Cc1ccc(=O)n(-c2ccccc2)c1 [Pirfenidone] | – | 91.5 % of labeled claim and 94.9 % of labeled claim | 89.9 % of labeled claim and 95.7 % of labeled claim | 90.9 % of labeled claim and 97.2 % of labeled claim | 3000 (≈ 16200 µM) | 0.381 | 0.454 | BLQ | 0.014 | D50: 57 | D90: 74 | 312 | D50: 44 | D90: 72 | 7.6 | Pass 23G | – | – | – | – | –
3 | CCN(CC)CCNC(=O)c1c(C)[nH]c(/C=C2\C(=O)Nc3ccc(F)cc32)c1C [Sunitinib] | – | 100.0 % of labeled claim and 95.6 % of labeled claim | 98.9 % of labeled claim and 96.5 % of labeled claim | 96.7 % of labeled claim and 95.1 % of labeled claim | 7 (≈ 17.6 µM) | – | – | – | – | D50: 25 | D90: 52 | 201 | D50: 12 | D90: 26 | 7.6 | Pass 25G | – | – | – | – | –
4 | COC(=O)N(C)c1c(N)nc(-c2nn(Cc3ccccc3F)c3ncccc23)nc1N [Riociguat] | – | 99.9 % of labeled claim and 99.7 % of labeled claim | 98.7 % of labeled claim and 98.0 % of labeled claim | 101.9 % of labeled claim and 100.6 % of labeled claim | 8 (≈ 18.9 µM) | – | – | – | – | D50: 16 | D90: 29 | 201 | D50: 9 | D90: 17 | 7.6 | Pass 27G | remained high | prolonged drug release | – | – | Prostate concentrations Mean ([6]; male, Wistar, 2 weeks after the second injection): 492 µg/g
5 | CNC(=O)c1cc(Oc2ccc(NC(=O)Nc3ccc(Cl)c(C(F)(F)F)c3)cc2)ccn1.Cc1ccc(S(=O)(=O)O)cc1 [Sorafenib Hemi Tosylate] | – | 99.9 % of labeled claim and 99.6 % of labeled claim | 100.7 % of labeled claim and 100.4 % of labeled claim | 98.9 % of labeled claim and 101.6 % of labeled claim | – | – | – | – | 892 | D50: 18 | D90: 39 | 216 | D50: 11 | D90: 20 | 7.3 | Pass 27G | – | – | delay in granulation tissue formation | prolonged presence of myofibroblasts | concentrations in the choroid and retina ([7]; 0.3% w/w topical instillation): significant concentrations; drug concentrations in anterior tissues of conjunctiva, sclera and cornea ([7]; 0.3% w/w topical instillation): high drug concentrations; plasma concentrations, mean (±SD) ([7]; Day 5 of dosing, 0.3% w/w 35 μl eyedrop three times daily): 5.09 (±1.27) ng/mL; SMA staining [8]: slight to minimal; dermis fibrin [8]: minimal to none; dermis fibroplasia [8]: minimal to slight; dermis provisional matrix [8]: slight to none; epidermis hyperplasia [8]: none; inflammation [8]: moderate to minimal; subcutis fibroplasia [8]: minimal to moderate; subcutis mixed cell infiltrate [8]: slight to marked; Aqueous Solubility [3]: 6 µg/mL; drug release from prostate into systemic circulation ([4]; after single intraprostate injections): prolonged drug release; drug concentration in prostate [4, 11]: remained high
6 | CNC(=O)c1ccccc1Sc1ccc2c(/C=C/c3ccccn3)n[nH]c2c1 [Axitinib] | 2 to 5 | 95.2 % of labeled claim and 100.9 % of labeled claim | 97.8 % of labeled claim and 98.5 % of labeled claim | 102.0 % of labeled claim and 100.7 % of labeled claim | 2 (≈ 5.17 µM) | 1.72 | 1.49 | 0.33 ng/mL | 718 | D50: 5.5 | D90: 9.9 | 206 | D50: 5.8 | D90: 15.6 | 7.6 | Pass 25G | remained high | prolonged drug release | delay in granulation tissue formation | prolonged presence of myofibroblasts | concentration at 5 day of dosing ([7]; New Zealand White, rabbit, plasma, topical, 35 μl eyedrop of 0.3% w/w to the right eye, three times daily): 0.29 ng/mL; Assay (% of labeled claim) of Formulated Suspension, 4 months (40° C./75% RH) (bottom) ([2]; Autoclave, bottom, tested at 3 months instead of 4 months, 40° C./75% RH): 103.2 % of labeled claim; Assay (% of labeled claim) of Formulated Suspension, Initial (bottom) ([2]; Autoclave, initial, bottom): 100.1 % of labeled claim; Assay (% of labeled claim) of Formulated Suspension, Initial (top) ([2]; Autoclave, initial, top): 98.7 % of labeled claim; Assay (% of labeled claim) of Formulated Suspension, 4 months (40° C./75% RH) (top) ([2]; Autoclave, top, tested at 3 months instead of 4 months, 40° C./75% RH): 101.2 % of labeled claim; SMA staining [8]: minimal to moderate; dermis fibrin [8]: slight to moderate; dermis fibroplasia [8]: none to slight; dermis provisional matrix [8]: marked to moderate; epidermis hyperplasia [8]: minimal to slight; inflammation [8]: slight to moderate; subcutis fibroplasia [8]: none to moderate; subcutis mixed cell infiltrate [8]: moderate to minimal; concentrations in the choroid and retina [9]: significant concentrations; drug concentrations in anterior tissues of conjunctiva, sclera and cornea [9]: high drug concentrations; mean concentration in the dermis, 2 cm away from the injection site ([10]; 0.1% intradermal injection): 1.2-8 ng/gm; mean concentration in the epidermis, 2 cm away from the injection site ([10]; 0.1% intradermal injection): 4.5-55.2 ng/gm; mean concentration in the dermis, 2 cm away from the injection site ([10]; 1% intradermal injection): 2.9-150 ng/gm; mean concentration in the epidermis, 2 cm away from the injection site ([10]; 1% intradermal injection): 42.3-723 ng/gm
